Structures can show the parent of a compound that is named as a salt.
How the values were obtained:
[1] = cited from earlier work
[2] = system: PDH; details: cited from earlier work

Row | melting point [°C] | Structure (SMILES) | also measured
1 | 177 to 178 | C[C@@H]1CN(C(=O)[C@@](C)(O)C(F)(F)F)[C@@H](C)CN1C(=O)c1ccc(F)cc1 | –
2 | 194 to 196 | C[C@@H]1CN(C(=O)[C@@](C)(O)C(F)(F)F)[C@@H](C)CN1S(=O)(=O)c1ccc(C(=O)O)cc1 | –
3 | – | O=C(O)C(Cl)Cl [DCA, dichloroacetic acid] | plasma glucose ([1]; after repeated administration): significant decrease in plasma glucose; glycaemia ([1]; in vivo): reducing glycaemia; activity of PDH ([2]; after acute administration in animals): increases the activity of PDH; proportion of PDH in its active form ([2]; single administration, 150 mg/kg, intraperitoneally): increased the proportion of PDH in its active form
4 | 186 to 187 | C[C@@H]1CN(C(=O)[C@@](C)(O)C(F)(F)F)[C@@H](C)CN1S(=O)(=O)c1ccc(C#N)cc1 | –
5 | 142 to 144 | CCS(=O)(=O)N1C[C@H](C)N(C(=O)[C@@](C)(O)C(F)(F)F)C[C@H]1C | –
6 | 78 to 79 | C[C@@](O)(C(=O)N1CCC(C(=O)c2ccc(F)cc2)CC1)C(F)(F)F | –
7 | 86 to 87 | C[C@@H]1CN(C(=O)[C@@](C)(O)C(F)(F)F)[C@@H](C)CN1S(=O)(=O)c1ccc(C(=O)N(C)C)cc1 | –
8 | 116 to 117 | C[C@@H]1CN(C(=O)[C@@](C)(O)C(F)(F)F)[C@@H](C)CN1S(=O)(=O)c1cccs1 | –
9 | 245 to 246 | C[C@@](O)(C(=O)N1CCC(N)CC1)C(F)(F)F (as salt: hydrochloride) | –
10 | 174 to 175 | C[C@@H]1CN(C(=O)[C@@](C)(O)C(F)(F)F)[C@@H](C)CN1S(=O)(=O)c1ccc(F)cc1 | –

Source: patent publication US6878712B1, “Amides as inhibitors for pyruvate dehydrogenase” (AstraZeneca AB, priority 1999, dated 2005)
